From patent US5304474A, “Hydrophobic peptide esters and amides” (Board of Regents, The University of Texas System, priority 1991, dated 1994)
Peptide text beside a SMILES is read from it.

What was measured:
[1] = Activity and appearance of mice post-injection; type: in vivo, C3H/HeJ mice; details: 15-30 minutes post-injection, about 1×10^-3 moles per kg tail-vein
Protocol: (§1) Leu-Leu-OMe or Leu-Phe-OMe were suspended in PBS, pH 7.4. Then individual C3H/HeJ mice (25 gram size) were administered by tail-vein injection either 2.5×10^-5 moles (6.5 mg) of Leu-Leu-OMe, 2.5×10^-5 moles (7.1 mg) Leu-Phe-OMe, or an equal volume of the PBS diluent, this dose being about 1×10^-3 moles per kg. […] Subsequent to this quiescent period no difference in activity or appearance in the mice was noted. Two hours post-injection, the mice were sacrificed and their spleen cells were assayed for NK function in a standard 4 hour assay against YAC-1 tumor targets. In all mice, total cell recovery ranged […] spleen cells per animal. […] Thus, Leu-Leu-OMe or Leu-Phe-OMe caused a greater than 75% decrease in splenic lytic activity against YAC-1 tumor targets.

[2] = system: splenic NK function (YAC-1 tumor targets); assay: Spleen cell NK function against YAC-1 after tail-vein injection; type: in vivo, C3H/HeJ mice
Protocol: as §1

[3] = system: [^3 H]Leu-Leu-OMe uptake by PBL (facilitated transport); assay: Competitive inhibition of [3H]Leu-Leu-OMe uptake; type: cell-based, human; details: Homo sapiens; unlabeled compound 250 microM; [3H]Leu-Leu-OMe 10 microM (Table 6)
Protocol: (§2) Human peripheral blood lymphocytes (PBL) were incubated in the presence of [^3 H]labeled Leu-Leu-OMe at 22° C. for varying lengths of time. The incubation mixture was then centrifuged through silicone oil to separate the cells from any unbound or non-internalized [^3 HLeu-Leu-OMe. […] At 37° C., levels of [^3 H]Leu-Leu-OMe accumulation by PBL were increased above those seen at 22° C. (see Table 4).

[4] = system: natural killer cells (NK); assay: NK function: lysis of K562 target cells (51Cr release) after preincubation of lymphocytes with compound
Protocol: PBM were separated from heparinized venous blood of healthy donors by centrifugation over sodium diatrizoate-Ficoll gradients (Isolymph, Gallard-Schlesinger Chemical Mfg. Corp., Carle Place, N.Y.).
All cell exposures to the amino acids, dipeptides or their methyl esters were carried out by suspending cells in Dulbecco's phosphate buffered saline (PBS) and incubating them at room temperature with the reagent at the indicated concentration and time interval.
Percent of control cytotoxicity was calculated using the formula: [formula]

[5] = system: production of a TCA insoluble product from [^3 H]Leu-Leu-OMe; type: cell-based, human; details: Expt. 1; Cycloheximide 100 micro-g/ml, PMSF 1 micro-M, Iodoacetamide 0.5 micro-M; Nil 2,160 + 193
Description: Iodoacetamide nonspecifically binds covalently to free sulfhydryl groups and thereby inhibits thiol protease function as well as other enzymatic reactions dependent on the presence of reduced sulfhydryl groups.

[6] = system: natural killer cells (NK); details: previous experiments (Thiele et al. 1985); cited from earlier work
[7] = Conversion of [3H]Leu-Leu-OMe in cells to a product which precipitates in 10% TCA; type: in vitro ADME, human; details: for Fractional Conversion of [^3 H]Leu--Leu--OMe to a product which Precipitates in 10% TCA: Intact NK, T8 Cells
Protocol: Additional experiments, detailed in Table 7, were performed to assess the metabolic fate of [^3 H]Leu-Leu-OMe within PBL. Cells were incubated with [^3 H]Leu-Leu-OMe for 15 minutes at 22° C. to permit uptake of this compound and then were washed. If the cells were immediately lysed and 10% trichloroacetic acid (TCA) was added to precipitate higher molecular weight cell proteins and nucleic acids, essentially all of the [^3 H]label remained in the supernatant as anticipated for a small molecular weight peptide which is soluble in 10% TCA.
In experiment 1 of Table 8 non-adherent peripheral blood lymphocytes were incubated in the presence or absence of 250 micro-M unlabeled Leu-Leu-OMe for 15 minutes and then cultured overnight at 37° C. This form of exposure to Leu-Leu-OMe has been shown previously herein to result inloss of NK cells and a substantial fraction of CD8(+) T cells, whereas the majority of CD4(+) lymphocytes are resistant to any toxic effects of this agent and remain viable and functionally intact. […] However, when production of a product which precipitated in 10% TCA was assessed following a second incubation at 37° C. for 30 minutes, it was noted that the LLMe resistant subset of lymphocytes produced almost no detectable amounts of this as yet unidentified product.
In experiment 2 (Table 8), PBL were divided into a CD4(+) T cell (T4 cell)-enriched population and a T8, NK-enriched population by staining with anti-CD4 or anti-CD8 monoclonal antibodies and panning on goat anti-mouse coated petri dishes to enrich for the unstained lymphocyte subsets as previously described (see prior Examples and J. Immunol. 1986 136:1038-1048). Again, it was noted that T4 cells took up less [^3 H]Leu-Leu-OMe during an initial incubation than did a population of lymphocytes enriched for T8 and NK cells. However, the differences in production of a product which precipitated in 10% TCA were even more dramatic. Whereas initial [^3 H]Leu-Leu-Me uptake by T4 cells was approximately 53% of that seen with an equal number of T8 and NK cells, the amount of [^3 H]label appearing in a 10% TCA precipitate of the T4 cell sonicate after a subsequent 30 minute incubation was less than 7% of the quantity noted in the TCA precipitable of T8 and NK cell sonicates. Furthermore, little or no TCA insoluble product was produced by other non-lymphoid cell types such as dermal fibroblasts or a renal cell carcinoma line, Cur, which have been previously noted to be resistant to the toxicity of Leu-Leu-OMe (J. Immunol 1986: 136:1038-1048). […] As proteinase K digestion removed this product, it was likely to be a larger peptide or protein into which [^3 H]Leu had been incorporated.

[8] = system: peripheral blood lymphocytes (PBL); assay: [3H]Leu-Leu-OMe uptake/binding by lymphocytes; type: in vitro ADME, human
Protocol: as §2

[9] = molecular target: dipeptidyl peptidase I (DPPI) (Bos taurus, UniProt Q3ZCJ8); assay: Polymerization of [3H]Leu-Leu-OMe to a TCA insoluble product by purified enzyme; type: biochemical, bovine
dipeptidyl peptidase I (DPPI), sequence (Q3ZCJ8 231-394 limits assumed): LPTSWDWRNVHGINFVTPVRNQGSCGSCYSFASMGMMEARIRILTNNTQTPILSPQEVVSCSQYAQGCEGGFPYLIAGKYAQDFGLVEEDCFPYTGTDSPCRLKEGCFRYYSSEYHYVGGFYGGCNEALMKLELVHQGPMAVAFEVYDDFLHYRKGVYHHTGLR
dipeptidyl peptidase I (DPPI), sequence (Q3ZCJ8 25-134 limits assumed): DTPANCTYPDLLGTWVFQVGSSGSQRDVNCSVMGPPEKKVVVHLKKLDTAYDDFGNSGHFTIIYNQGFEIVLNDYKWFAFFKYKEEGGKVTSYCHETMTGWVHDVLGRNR
dipeptidyl peptidase I (DPPI), sequence (Q3ZCJ8 395-463 limits assumed): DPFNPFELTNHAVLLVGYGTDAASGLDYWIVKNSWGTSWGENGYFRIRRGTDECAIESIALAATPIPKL
Description: When R1 and R2 are amino acids with nonpolar side groups, such products are very hydrophobic and water insoluble (J. Biol. Chem. 1952; 195:645-656). […] Of note, much lower extracellular concentrations of Leu-Leu-OMe are required for production of a similar product within NK and T8 cells.

[10] = Expt. 1, LLMe Resistant Lymphocytes
[11] = Expt. 1, Non-adherent Lymphocytes
[12] = second 37° C. incubation 15 minutes
[13] = second 37° C. incubation 30 minutes
[14] = second 37° C. incubation 60 minutes

COC(=O)[C@H](Cc1ccccc1)NC(=O)[C@@H](N)CC(C)C [Leu-Phe-OMe] (H-Leu-Phe-OMe)
activity and appearance post-injection [1]: exhibited decreased activity and an apparent increase in sleep | Percent lysis of target cells ([2]; E:T 25:1, 2.5×10^-5 moles per mouse tail-vein, 2 hours post-injection, Control 8.29): 3.89% | Percent lysis of target cells ([2]; E:T 50:1, same dosing, Control 12.88): 4.68% | Percent lysis of target cells ([2]; E:T 100:1, same dosing, Control 20.60): 6.91% | Percent lysis of target cells ([2]; E:T 200:1, same dosing, Control 29.29): 11.91% | decrease in splenic lytic activity against YAC-1 tumor targets ([2]; about 1×10^-3 moles per kg tail-vein): greater than 75% | inhibition at 250 µM [3]: 72% | NK Toxicity (LD50) ([4]; concentration which results in 50% loss of human NK function, PBL 15 minutes at 22° C.): 29 micro-M | NK toxicity / effect on NK function, in words ([4]; lymphocytes exposed 15 minutes at room temperature (FIG. 4, FIG. 5)): produced concentration-dependent ablation of NK function at concentrations comparable to those at which Leu-Leu-OMe was active

O=S(=O)(F)Cc1ccccc1 [PMSF, phenylmethylsulfonylfluoride]
[^3 H]Leu--Leu--OMe Incorporation, 10% TCA Precipitate [5]: 2,078 + 213 cpm

COC(=O)[C@@H](N)C(C)C [Val-OMe]
deletion of NK function from human PBM [6]: did not delete NK function from human PBM

COC(=O)[C@H](CC(C)C)NC(=O)[C@@H](N)CC(C)C [[^3 H]Leu--Leu--OMe]
Incorporation, Initial [7, 10]: 7,184 cpm | Incorporation, TCA Precipitate [7, 10]: 50 cpm | TCA Precipitate (% of initial) [7, 10]: 0.7% | Incorporation, Initial [7, 11]: 27,870 cpm | TCA Precipitate (% of initial) [7, 11]: 8.4% | Incorporation, TCA Precipitate ([7]; Expt. 1, Non-adherent Lymphocytes, 30 minutes 37° C.): 2,341 cpm | Incorporation, Initial ([7]; Expt. 2, Fibroblasts): 63,229 cpm | Incorporation, TCA Precipitate ([7]; Expt. 2, Fibroblasts): 293 cpm | TCA Precipitate (% of initial) ([7]; Expt. 2, Fibroblasts): 0.5% | Incorporation, Initial ([7]; Expt. 2, Renal Cell Carcinoma): 35,855 cpm | Incorporation, TCA Precipitate ([7]; Expt. 2, Renal Cell Carcinoma): 267 cpm | TCA Precipitate (% of initial) ([7]; Expt. 2, Renal Cell Carcinoma): 0.7% | Incorporation, Initial ([7]; Expt. 2, T4 Cells): 12,200 cpm | Incorporation, TCA Precipitate ([7]; Expt. 2, T4 Cells): 207 cpm | TCA Precipitate (% of initial) ([7]; Expt. 2, T4 Cells): 1.7% | Incorporation, Initial ([7]; Expt. 2, T8, NK Cells): 22,753 cpm | Incorporation, TCA Precipitate ([7]; Expt. 2, T8, NK Cells): 3,208 cpm | TCA Precipitate (% of initial) ([7]; Expt. 2, T8, NK Cells): 14.1% | initial uptake by T4 cells relative to equal number of T8 and NK cells ([7]; Expt. 2 of Table 8): approximately 53% | Fractional Conversion of [^3 H]Leu--Leu--OMe to a product which Precipitates in 10% TCA ([7]; 1 micro-M): < 0.1% | Fractional Conversion of [^3 H]Leu--Leu--OMe to a product which Precipitates in 10% TCA ([7]; 10 micro-M): < 0.2% | Fractional Conversion of [^3 H]Leu--Leu--OMe to a product which Precipitates in 10% TCA ([7]; 100 micro-M): 11.1% | Fractional Conversion of [^3 H]Leu--Leu--OMe to a product which Precipitates in 10% TCA ([7]; 250 micro-M): 23.2% | [^3 H]Leu--Leu--OMe Total ([7]; PBL, 15 minutes 22° C., second 37° C. incubation 0): 61.4 cpm × 10^-3 | label in TCA precipitate of T4 cell sonicate relative to T8 and NK cell sonicates ([7]; after 30 minute incubation): less than 7% | [^3 H]Leu--Leu--OMe TCA Prec. ([7]; second 37° C. incubation 0): 0.5 cpm × 10^-3 | [^3 H]Leu--Leu--OMe TCA Prec. [7, 12]: 6.8 cpm × 10^-3 | [^3 H]Leu--Leu--OMe Total [7, 12]: 24.9 cpm × 10^-3 | [^3 H]Leu--Leu--OMe TCA Prec. [7, 13]: 12.7 cpm × 10^-3 | [^3 H]Leu--Leu--OMe Total [7, 13]: 20.6 cpm × 10^-3 | [^3 H]Leu--Leu--OMe TCA Prec. [7, 14]: 10.7 cpm × 10^-3 | [^3 H]Leu--Leu--OMe Total [7, 14]: 12.7 cpm × 10^-3 | [^3 H]Leu--Leu--OMe Uptake/Binding ([8]; Expt. 1, 0° C.): 0.05 micro-moles/10^6 cells | [^3 H]Leu--Leu--OMe Uptake/Binding ([8]; Expt. 1, 22° C.): 0.77 micro-moles/10^6 cells | [^3 H]Leu--Leu--OMe Uptake/Binding ([8]; Expt. 2, 4° C.): 0.02 micro-moles/10^6 cells | [^3 H]Leu--Leu--OMe Uptake/Binding ([8]; Expt. 2, 22° C.): 0.31 micro-moles/10^6 cells | [^3 H]Leu--Leu--OMe Uptake/Binding ([8]; Expt. 2, 37° C.): 0.52 micro-moles/10^6 cells | Fractional Conversion of [^3 H]Leu--Leu--OMe to a product which Precipitates in 10% TCA ([9]; 1 micro-M): < 0.01% | Fractional Conversion of [^3 H]Leu--Leu--OMe to a product which Precipitates in 10% TCA ([9]; 10 micro-M): 0.03% | Fractional Conversion of [^3 H]Leu--Leu--OMe to a product which Precipitates in 10% TCA ([9]; 100 micro-M): 0.08% | Fractional Conversion of [^3 H]Leu--Leu--OMe to a product which Precipitates in 10% TCA ([9]; 1000 micro-M): 20.0%
